# Measurements from ChEMBL document CHEMBL1201862, “PubChem BioAssay data set” (2004).
# Active and inactive are the calls of the source.
# Tests used:
# [1] = target: T1, Protein skinhead-1 (Caenorhabditis elegans, UniProt P34707); type: functional
# T1 sequence (P34707 whole entry): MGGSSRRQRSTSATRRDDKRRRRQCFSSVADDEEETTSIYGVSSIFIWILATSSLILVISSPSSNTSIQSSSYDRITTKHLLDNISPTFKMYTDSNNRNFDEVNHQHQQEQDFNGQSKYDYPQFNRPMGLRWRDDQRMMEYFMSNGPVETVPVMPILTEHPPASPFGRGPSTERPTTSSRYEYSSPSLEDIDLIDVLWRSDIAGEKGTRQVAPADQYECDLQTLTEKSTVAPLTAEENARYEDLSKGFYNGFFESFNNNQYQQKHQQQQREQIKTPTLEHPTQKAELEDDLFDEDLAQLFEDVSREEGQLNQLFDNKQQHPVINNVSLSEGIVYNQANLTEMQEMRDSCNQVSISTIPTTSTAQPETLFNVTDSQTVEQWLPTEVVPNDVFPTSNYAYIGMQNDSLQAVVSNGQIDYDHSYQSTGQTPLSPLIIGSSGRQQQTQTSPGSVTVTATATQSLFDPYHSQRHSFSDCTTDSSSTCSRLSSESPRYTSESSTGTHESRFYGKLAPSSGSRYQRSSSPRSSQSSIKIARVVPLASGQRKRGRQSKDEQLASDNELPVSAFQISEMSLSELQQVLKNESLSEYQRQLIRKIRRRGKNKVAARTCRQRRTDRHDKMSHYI
# [2] = HEp-2 cell cytotoxicity, dose response, cytotoxicity control for RSV inhibitor project, HTS (AID 2410); type: functional; conditions: human respiratory syncytial virus
# [3] = test system: H4; test: Luminescence Cell-Based Dose Response HTS to Identify Activators of 5'UTR Stem-Loop Driven Prion Protein mRNA Translation in H4 Neuroglioblastoma Cells. [Related pubchem assays: 1829 (Project Summary), 1814 (Primary HTS)]; type: functional; conditions: Homo sapiens
# [4] = Luminescence Cell-Based Dose Response HTS to Identify Activators of Luciferase Translation or Activity in H4 […] Cells. [Related pubchem assays: 1829 (Project Summary), 1814 (Primary HTS)]; type: functional
# [5] = Luminescence Cell-Based Dose Confirmation HTS to Identify Activators of 5'UTR Stem-Loop Driven Alpha-Synuclein mRNA Translation in H4 Neuroglioblastoma Cells. [Related pubchem assays: 1829 (Project Summary), 1814 (Primary HTS)]; type: functional
# [6] = growth suppression of PTEN-null colon cells, dose response, cell-based, HCT116 PTEN knockout (AID 1047); type: functional;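 further: HCT116 colon tumor cells with PTEN knocked out; cells exposed to compound for 60 hours before readout; potency for loss of cell viability measured by luminescence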
# [7] = growth suppression of beta-catenin-knockout colon cells, dose response, cell-based, HCT116, human colon tumor (AID 1045); type: functional;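 further: HCT116 colon tumor cells with beta catenin knocked out; cells exposed to compound for 60 hours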
# [8] = target: T2, Corticotropin-releasing factor receptor 2/Corticotropin-releasing factor-binding protein (Homo sapiens, UniProt P24387+Q13324); test: Dose Response confirmation of uHTS hits for small molecule antagonists of the CRF-binding protein and CRF-R2 receptor complex.; type: functional; conditions: read-out: IC50_Mean
# T2 sequence (Q13324 whole entry): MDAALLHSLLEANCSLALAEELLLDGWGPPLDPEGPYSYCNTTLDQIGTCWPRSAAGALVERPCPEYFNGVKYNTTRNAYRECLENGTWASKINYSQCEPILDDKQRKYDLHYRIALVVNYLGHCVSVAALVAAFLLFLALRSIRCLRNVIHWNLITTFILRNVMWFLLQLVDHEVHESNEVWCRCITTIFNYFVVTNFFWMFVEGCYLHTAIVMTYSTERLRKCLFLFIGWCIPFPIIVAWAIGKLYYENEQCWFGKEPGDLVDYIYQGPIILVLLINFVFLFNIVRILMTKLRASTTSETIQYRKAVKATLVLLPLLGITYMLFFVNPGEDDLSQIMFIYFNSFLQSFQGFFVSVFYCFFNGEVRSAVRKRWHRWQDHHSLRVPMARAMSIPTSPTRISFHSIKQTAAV
# T2 sequence (P24387 whole entry): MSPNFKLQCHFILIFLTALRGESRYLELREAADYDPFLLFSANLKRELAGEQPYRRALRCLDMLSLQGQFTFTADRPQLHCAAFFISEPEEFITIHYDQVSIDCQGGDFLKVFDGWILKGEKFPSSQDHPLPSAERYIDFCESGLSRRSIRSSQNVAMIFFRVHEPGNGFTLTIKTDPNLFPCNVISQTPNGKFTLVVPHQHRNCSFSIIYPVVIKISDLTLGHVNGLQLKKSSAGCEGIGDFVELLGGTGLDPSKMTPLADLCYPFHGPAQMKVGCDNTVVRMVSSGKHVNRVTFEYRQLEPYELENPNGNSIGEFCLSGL
# [9] = target: T2, Corticotropin-releasing factor receptor 2/Corticotropin-releasing factor-binding protein; test: activators of CRF receptor 2 with binding protein – uHTS hits, confirmation (AID 602473); type: functional; conditions: read-out: EC50_Mean
# [10] = target: T3, Zinc finger protein mex-5 (Caenorhabditis elegans, UniProt Q9XUB2); test: MEX-5/TCR-2 RNA interaction inhibitors, dose response, biochemical, C. elegans, fluorescence polarization (AID 1960)
# T3 sequence (Q9XUB2 whole entry): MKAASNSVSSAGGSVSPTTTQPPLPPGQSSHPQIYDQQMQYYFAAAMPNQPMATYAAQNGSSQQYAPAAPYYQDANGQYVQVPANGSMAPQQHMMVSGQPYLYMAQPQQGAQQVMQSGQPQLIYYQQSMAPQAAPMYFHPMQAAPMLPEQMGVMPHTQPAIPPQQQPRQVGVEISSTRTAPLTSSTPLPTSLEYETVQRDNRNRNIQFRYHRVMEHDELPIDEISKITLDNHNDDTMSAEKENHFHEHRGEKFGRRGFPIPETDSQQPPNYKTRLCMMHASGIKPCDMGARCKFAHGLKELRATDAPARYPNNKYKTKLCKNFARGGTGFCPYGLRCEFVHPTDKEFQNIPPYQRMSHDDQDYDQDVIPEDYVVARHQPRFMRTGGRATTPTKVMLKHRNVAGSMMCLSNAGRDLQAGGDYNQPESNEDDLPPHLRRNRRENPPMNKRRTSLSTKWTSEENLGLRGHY
# [11] = target: T4, RNA-binding protein pos-1 (Caenorhabditis elegans, UniProt G5EF15); test: inhibitors of POS-1/mex-3 RNA binding, dose response, biochemical, fluorescence polarization (AID 1964);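 further: purified POS-1 fused to maltose binding protein made in E. coli; potency of compounds blocking POS-1 binding to fluorescent RNA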
# T4 sequence (G5EF15 whole entry): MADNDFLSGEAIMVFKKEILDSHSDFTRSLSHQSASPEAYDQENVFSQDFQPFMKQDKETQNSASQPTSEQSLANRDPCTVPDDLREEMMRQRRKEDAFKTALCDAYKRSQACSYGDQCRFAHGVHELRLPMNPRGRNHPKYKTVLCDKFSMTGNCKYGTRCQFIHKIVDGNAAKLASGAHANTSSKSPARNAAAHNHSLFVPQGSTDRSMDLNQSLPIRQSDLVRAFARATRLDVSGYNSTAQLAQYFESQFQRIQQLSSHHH
# [12] = target: T5, Rac GTPase-activating protein 1 (Homo sapiens, UniProt Q9H0H5); test: MgcRacGAP GTPase-activating activity inhibitors, confirmation, biochemical, ADP Hunter fluorescence, primary and confirmatory (AID 624330); type: functional
# T5 sequence (Q9H0H5 whole entry): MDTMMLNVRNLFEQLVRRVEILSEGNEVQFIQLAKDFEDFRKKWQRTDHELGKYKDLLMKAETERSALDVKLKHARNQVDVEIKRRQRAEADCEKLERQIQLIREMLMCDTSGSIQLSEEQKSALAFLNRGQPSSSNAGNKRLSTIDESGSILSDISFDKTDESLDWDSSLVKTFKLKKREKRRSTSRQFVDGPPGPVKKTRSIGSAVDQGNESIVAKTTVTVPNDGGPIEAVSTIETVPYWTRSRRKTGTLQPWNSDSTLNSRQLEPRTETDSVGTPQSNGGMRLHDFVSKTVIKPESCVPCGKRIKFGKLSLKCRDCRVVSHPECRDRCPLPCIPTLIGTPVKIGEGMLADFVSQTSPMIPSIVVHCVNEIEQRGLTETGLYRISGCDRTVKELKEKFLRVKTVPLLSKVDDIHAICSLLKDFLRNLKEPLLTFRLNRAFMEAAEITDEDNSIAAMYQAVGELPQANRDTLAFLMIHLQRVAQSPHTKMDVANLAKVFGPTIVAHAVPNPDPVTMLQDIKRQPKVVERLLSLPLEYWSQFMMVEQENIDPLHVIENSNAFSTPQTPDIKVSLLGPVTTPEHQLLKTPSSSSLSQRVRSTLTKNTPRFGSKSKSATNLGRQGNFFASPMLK
SMILES,EC50 [3],EC50 [4],EC50 [5],further results
O=C(Nc1nc2c(ccc3ccccc32)s1)c1ccco1,,,,IC50 [1]: 14.9 µM (active); CC50 [2]: 14.8 µM (active)
O=C(CNS(=O)(=O)c1cccs1)Nc1ccc2c(c1)OCCO2,2.85 µM (active),7.8 µM (active),11.6 µM (active),
CCCNC(=O)c1c(NC(=O)C2COc3ccccc3O2)sc2c1CCCC2 (stereo not given),,,,EC50 [6]: 8.59 µM (active); EC50 [7]: 9.98 µM (active)
O=C1Nc2cc(Cl)c(Cl)cc2N(O)N1c1ccc(Cl)cc1,> 120 µM (not active),> 120 µM (not active),> 120 µM (not active),
Cc1ccccc1OCC(=O)OCC(=O)c1c[nH]c2ccccc12,,,,IC50 [8]: > 47.1 µM (inactive); EC50 [9]: > 53 µM (inactive)
Cc1ccc2nc3sc(C(=O)N4CCCc5ccccc54)c(N)c3cc2c1,> 120 µM (not active),7.55 µM (active),> 120 µM (not active),EC50 [10]: > 300 µM (inconclusive); EC50 [11]: > 300 µM (not active)
CCOC(=O)N1CCC(N2CCN(S(=O)(=O)c3ccc4ccccc4c3)CC2)CC1,,,,IC50 [12]: 151 µM (active)
COc1cc(CN2CCN(C(=O)CC(C)C)CC2)cc(OC)c1O,,,,IC50 [12]: 78.6 µM (active)
CC(=O)N(C1=NCCCS1)c1ccc(F)cc1,,,,IC50 [1]: > 100 µM (inactive)
Fc1ccccc1Nc1nc2ccccc2n2nnnc12,62.6 µM (active),95.3 µM (active),26.2 µM (active),
CC(C)CC(=O)Nc1ccc(Nc2ccccc2)cc1,,,,IC50 [1]: > 100 µM (inactive)
FC(F)(F)c1ccccc1Cc1c(-c2ccccc2)nc2ccc(Br)cn12,,,,IC50 [1]: > 100 µM (inactive)
c1ccc(CSc2nnc(-c3ccco3)n2Cc2ccccc2)cc1,7.76 µM (active),6.57 µM (active),0.166 µM (active),
ClC(=C\c1ccccc1)/C=N/N1CCN(c2ccccn2)CC1,8.35 µM (active),36.5 µM (active),0.347 µM (active),
C[n+]1cn(/N=C/c2ccccc2)c2ccccc21,57.7 µM (active),> 120 µM (not active),17.4 µM (active),
COc1cc(/C=N/NC(=O)C(=O)N2CCCC2)ccc1O,,,,IC50 [12]: 26.7 µM (active)
